Measured values from US20140051679A1, “KINASE INHIBITORS AND METHOD OF TREATING CANCER WITH SAME” (UNIVERISTY HEALTH NETWORKS, priority 2011, published 2014).
pIC50: −log10 of the molar value.

Key:
[1] = molecular target: T1, Aurora B (Homo sapiens, UniProt Q96GD4); assay: Aurora B inhibition assay (Z-Lyte); assay type: biochemical; settings: 28 nM Aurora B, 128 μM ATP; read-out: IC50 Ranges Aurora B
T1 construct: purchased Invitrogen PV3970
Procedure: Aurora B inhibition was determined using the Z-Lyte assay kit from Invitrogen. The assay was performed using the recommended manufacturer's instructions with 128 μM ATP and 28 nM Aurora B (Invitrogen cat #PV3970). The % inhibition values were determined according to the manufacturer's directions and IC50 values were obtained using a non-linear 4 point logistic curve fit (XLfit4, IDBS)

[2] = molecular target: T2, human PLK4 (Homo sapiens, UniProt O00444); assay: PLK4 inhibition assay (indirect ELISA); assay type: biochemical; settings: GST-PLK4 4 nM, 15 μM ATP; read-out: IC50 Ranges PLK4
T2 construct: amino terminal GST fusion of residues 1-391 of human PLK4; made in house; host or cells: E. coli
T2 sequence (O00444 1-391): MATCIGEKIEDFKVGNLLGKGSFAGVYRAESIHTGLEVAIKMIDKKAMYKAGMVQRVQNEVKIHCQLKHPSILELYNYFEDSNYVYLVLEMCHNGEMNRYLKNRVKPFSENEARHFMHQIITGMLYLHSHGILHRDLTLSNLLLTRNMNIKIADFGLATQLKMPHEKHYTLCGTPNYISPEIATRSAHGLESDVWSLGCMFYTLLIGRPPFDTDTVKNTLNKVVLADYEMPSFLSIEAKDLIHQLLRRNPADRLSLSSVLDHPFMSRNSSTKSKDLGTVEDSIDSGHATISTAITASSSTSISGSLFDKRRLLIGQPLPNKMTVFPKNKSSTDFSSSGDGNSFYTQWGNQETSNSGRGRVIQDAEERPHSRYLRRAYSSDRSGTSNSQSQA
Method in brief: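 Compounds were tested either at a single 10 μM dose or across 10-point titrations (typically 0.5 to 0.001 μM), preincubated 15 min with 4 nM GST-PLK4 (human 1-391, dephosphorylated) before 15 μM ATP was added. MBP substrate phosphorylation over 30 min, pH 7.5 HEPES/MgCl2 buffer, read by HRP/TMB ELISA (450 nm). % inhibition vs. high-activity control; IC50 by logistic fit.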

[3] = test system: MDA-MB-468 breast cancer cells; assay: Cell growth inhibition, Sulforhodamine B assay, MDA-MB-468; assay type: cell-based; settings: Homo sapiens, 120 h, 5 days culture, SRB assay, read-out: Cell Line GI50 Range MDA-MB-468
[4] = test system: HCT116 colon cancer cells; assay: Cell growth inhibition, Sulforhodamine B assay, HCT116; assay type: cell-based; settings: Homo sapiens, HCT-116, 120 h, 5 days culture, SRB assay, read-out: Cell Line GI50 Range HCT116
[5] = test system: HT29 colon cancer cells; assay: Cell growth inhibition, Sulforhodamine B assay, HT29; assay type: cell-based; settings: Homo sapiens, HT-29, 120 h, 5 days culture, SRB assay, read-out: Cell Line GI50 Range HT29
[6] = test system: MDA-MB-231 breast cancer cells; assay: Cell growth inhibition, Sulforhodamine B assay, MDA-MB-231; assay type: cell-based; settings: Homo sapiens, 120 h, 5 days culture, SRB assay, read-out: Cell Line GI50 Range MDA-MB-231
[7] = molecular target: T3, human TTK (Homo sapiens, UniProt P33981); assay: TTK inhibition assay (indirect ELISA); assay type: biochemical; settings: GST-TTK 0.68 nM, 16 μM ATP; read-out: IC50 Ranges TTK
T3 construct: amino terminal GST fusion of full length human TTK; purchased Invitrogen
T3 sequence (P33981 1-857): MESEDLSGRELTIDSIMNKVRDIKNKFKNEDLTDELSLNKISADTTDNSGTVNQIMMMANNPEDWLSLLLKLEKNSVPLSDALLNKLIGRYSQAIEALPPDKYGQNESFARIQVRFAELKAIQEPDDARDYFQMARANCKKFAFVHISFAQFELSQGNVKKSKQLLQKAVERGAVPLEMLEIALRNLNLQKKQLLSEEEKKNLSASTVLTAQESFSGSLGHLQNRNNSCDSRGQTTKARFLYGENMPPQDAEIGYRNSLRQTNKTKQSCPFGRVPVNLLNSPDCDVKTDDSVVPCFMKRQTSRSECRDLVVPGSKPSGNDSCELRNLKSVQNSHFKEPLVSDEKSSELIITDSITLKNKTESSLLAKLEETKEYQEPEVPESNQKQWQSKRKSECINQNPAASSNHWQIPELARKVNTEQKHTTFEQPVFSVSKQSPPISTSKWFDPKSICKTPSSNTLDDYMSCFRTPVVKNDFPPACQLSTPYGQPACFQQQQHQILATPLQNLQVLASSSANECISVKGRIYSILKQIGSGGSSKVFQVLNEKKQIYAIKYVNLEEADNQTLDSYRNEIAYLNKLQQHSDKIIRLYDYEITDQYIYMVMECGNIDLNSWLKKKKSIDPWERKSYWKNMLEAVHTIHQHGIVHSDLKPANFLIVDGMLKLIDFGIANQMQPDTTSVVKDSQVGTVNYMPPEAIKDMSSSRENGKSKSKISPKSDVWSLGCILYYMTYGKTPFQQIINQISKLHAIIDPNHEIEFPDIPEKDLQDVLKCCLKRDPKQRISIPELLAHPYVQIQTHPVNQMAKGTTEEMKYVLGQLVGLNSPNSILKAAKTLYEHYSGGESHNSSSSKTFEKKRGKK

[8] = test system: PA-1 ovarian cancer cells; assay: Cell growth inhibition, Sulforhodamine B assay, PA-1; assay type: cell-based; settings: 120 h, 5 days culture, SRB assay, read-out: Cell Line GI50 Range PA-1
[9] = test system: OVCAR-3 ovarian cancer cells; assay: Cell growth inhibition, Sulforhodamine B assay, OVCAR-3; assay type: cell-based; settings: Homo sapiens, 120 h, 5 days culture, SRB assay, read-out: Cell Line GI50 Range OVCAR-3

T1 sequence (Q96GD4 whole entry): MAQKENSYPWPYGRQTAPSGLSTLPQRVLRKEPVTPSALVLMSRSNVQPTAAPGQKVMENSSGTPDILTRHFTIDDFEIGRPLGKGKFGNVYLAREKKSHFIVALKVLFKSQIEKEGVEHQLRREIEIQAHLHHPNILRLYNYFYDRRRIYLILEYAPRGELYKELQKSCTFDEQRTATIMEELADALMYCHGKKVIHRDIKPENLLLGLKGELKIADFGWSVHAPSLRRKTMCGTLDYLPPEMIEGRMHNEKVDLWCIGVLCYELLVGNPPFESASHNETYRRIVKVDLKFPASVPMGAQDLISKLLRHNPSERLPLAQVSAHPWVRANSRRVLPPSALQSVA

Structure (SMILES)	pIC50 [1]	pIC50 [2]	GI50 [3] [µM]	GI50 [4] [µM]	GI50 [5] [µM]	GI50 [6] [µM]	pIC50 [7]	GI50 [8] [µM]	GI50 [9] [µM]
CN1CCC(Oc2ccc(-c3n[nH]c4ccc(C(=O)NCc5ccccc5CO)cc34)cc2)CC1 [Example A142, N-(2-(hydroxymethyl)benzyl)-3-(4-((1-methylpiperidin-4-yl)oxy)phenyl)-1H-indazole-5-carboxamide]		≥ 5.30	≤ 5	≤ 5	≤ 5	≤ 5	≥ 5.30	≤ 5	5 to 20
CO[C@@H](C(=O)Nc1ccc2[nH]nc(-c3ccc(OCC4CCN(C)CC4)cc3)c2c1)c1ccccc1 [Example A145, (R)-2-methoxy-N-(3-(4-((1-methylpiperidin-4-yl)methoxy)phenyl)-1H-indazol-5-yl)-2-phenylacetamide]		≥ 5.30	≤ 5	≤ 5	≤ 5	≤ 5	≥ 5.30	≤ 5	≤ 5
COc1ccccc1C(C(=O)Nc1ccc2[nH]nc(-c3ccc(OC4CCN(C)CC4)cc3)c2c1)C1CCCC1 (stereo not drawn) [Example A156, 2-cyclopentyl-2-(2-methoxyphenyl)-N-(3-(4-((1-methylpiperidin-4-yl)oxy)phenyl)-1H-indazol-5-yl)acetamide]		≥ 5.30	≤ 5	≤ 5	≤ 5	≤ 5	≥ 5.30	≤ 5	≤ 5
COCCN1CCC(Oc2ccc(-c3n[nH]c4ccc(C(=O)N[C@H](COC)c5ccccc5)cc34)cc2)CC1 [Example A164, (S)—N-(2-methoxy-1-phenylethyl)-3-(4-((1-(2-methoxyethyl)piperidin-4-yl)oxy)phenyl)-1H-indazole-5-carboxamide]		≥ 5.30	≤ 5	≤ 5	≤ 5	≤ 5	≥ 5.30	≤ 5	≤ 5

Second part, the molecule after the results:

pIC50 [1]	pIC50 [2]	GI50 [3] [µM]	GI50 [4] [µM]	GI50 [5] [µM]	GI50 [6] [µM]	pIC50 [7]	GI50 [8] [µM]	GI50 [9] [µM]	Structure (SMILES)
≥ 5.30	≥ 5.30	≤ 5	≤ 5	≤ 5	≤ 5	≥ 5.30	≤ 5	≤ 5	CN1CCC(Oc2ccc(-c3n[nH]c4ccc(NC(=O)C5CCCc6ccccc65)cc34)cc2)CC1 (stereo not drawn) [Example A18, N-(3-(4-((1-methylpiperidin-4-yl)oxy)phenyl)-1H-indazol-5-yl)-1,2,3,4-tetrahydronaphthalene-1-carboxamide]
≥ 5.30	≥ 5.30	≤ 5	≤ 5	≤ 5	≤ 5	≥ 5.30	≤ 5	≤ 5	Cc1ccccc1CC(=O)Nc1ccc2[nH]nc(-c3ccc(OC4CCN(C)CC4)cc3)c2c1 [Example A92, N-(3-(4-(1-Methylpiperidin-4-yloxy)phenyl)-1H-indazol-5-yl)-2-o-tolylacetamide]
	≥ 5.30	≤ 5	≤ 5	≤ 5	≤ 5	≥ 5.30	≤ 5	≤ 5	CN1CCC(Oc2ccc(-c3n[nH]c4ccc(NC(=O)C5OCCc6ccccc65)cc34)cc2)CC1 (stereo not drawn) [Example A146, N-(3-(4-(1-Methylpiperidin-4-yloxy)phenyl)-1H-indazol-5-yl)isochroman-1-carboxamide]
	≥ 5.30	≤ 5	≤ 5	≤ 5	≤ 5	≥ 5.30	≤ 5	≤ 5	CN1CCC(Oc2ccc(-c3n[nH]c4ccc(NC(=O)C(c5ccccc5F)C5CCCC5)cc34)cc2)CC1 (stereo not drawn) [Example A162, 2-cyclopentyl-2-(2-fluorophenyl)-N-(3-(4-((1-methylpiperidin-4-yl)oxy)phenyl)-1H-indazol-5-yl)acetamide]
